Results published in patent publication EP4806894A1, “TNAP INHIBITORY COMPOUND AND USE THEREOF” (Rednvia Co., Ltd., priority 2023, dated 2025).
Structures can show the parent of a compound that is named as a salt.

Legend:
saos-2 cells = test: Anticalcification efficacy in saos-2 cells (osteogenic medium, Alizarin Red staining); type: cell-based; settings: Homo sapiens, 168 h, test compound 1 µM, 7 days osteogenic medium, Alizarin Red absorbance 540 nm, read-out: calcification inhibition
In short: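 Saos-2 cells at 80–90% confluence induced for 7 days in osteogenic medium (DMEM, 100 nM dexamethasone, 10 mM β-glycerophosphate, 0.05 mM ascorbic acid), compound (0.5, 1, 5, 10 […]) added with each medium change. Alizarin Red staining eluted with cetylpyridinium chloride, A540 read; inhibition taken against OM-only absorbance.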

TNAP = biological target: T1, TNAP (Homo sapiens, UniProt P05186); test: TNAP inhibitory activity, colorimetric assay (alkaline phosphatase assay kit ab83369, pNPP substrate); type: biochemical; settings: TNAP enzyme, 2 hours at room temperature, absorbance 405 nm
T1 sequence (P05186 18-502 limits assumed): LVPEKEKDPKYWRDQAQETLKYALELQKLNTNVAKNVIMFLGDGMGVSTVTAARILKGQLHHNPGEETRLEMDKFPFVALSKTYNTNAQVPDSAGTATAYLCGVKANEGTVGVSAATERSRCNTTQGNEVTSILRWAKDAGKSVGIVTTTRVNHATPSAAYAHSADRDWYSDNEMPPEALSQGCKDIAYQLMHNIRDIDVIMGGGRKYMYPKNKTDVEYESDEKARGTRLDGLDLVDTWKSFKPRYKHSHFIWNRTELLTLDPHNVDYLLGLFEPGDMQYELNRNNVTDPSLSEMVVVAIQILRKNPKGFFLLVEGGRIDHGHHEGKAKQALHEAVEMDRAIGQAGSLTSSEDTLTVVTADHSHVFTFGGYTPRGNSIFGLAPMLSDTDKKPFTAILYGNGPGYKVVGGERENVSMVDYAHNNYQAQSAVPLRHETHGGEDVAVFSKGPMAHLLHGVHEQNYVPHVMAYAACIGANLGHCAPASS

SMILES	inhibition at 1 µM (saos-2 cells) [%]	IC50 (TNAP) [nM]
COc1ccc(-c2ccc(C(=O)O)cc2)cc1S(=O)(=O)Nc1cnc2c(c1)C(=O)NCC2 [Example 34, 4'-methoxy-3'-(N-(5-oxo-5,6,7,8-tetrahydro-1,6-naphthyridine-3-yl)sulfamoyl)-[1,1'-biphenyl]-4-carboxylic acid]	≥ 50	100 to 1000
COc1ccc(Cl)cc1S(=O)(=O)Nc1cnc2c(c1)CN(C(=O)CC(C)(C)C)CC2 [Example 118, 5-chloro-N-(6-(3,3-dimethylbutanoyl)-5,6,7,8-tetrahydro-1,6-naphthyridine-3-yl)-2-methoxybenzenesulfonamide]	≥ 50	10 to 100
COc1ccc(-c2cnn(C)c2)cc1S(=O)(=O)Nc1cnc2c(c1)C(=O)NCC2 [Example 57, 2-methoxy-5-(1-methyl-1H-pyrazole-4-yl)-N-(5-oxo-5,6,7,8-tetrahydro-1,6-naphthyridine-3-yl)benzenesulfonamide]	≥ 50	100 to 1000
COc1ccc(-c2cnn(CCO)c2)cc1S(=O)(=O)Nc1cnc2c(c1)C(=O)NCC2 [Example 80, 5-(1-(2-hydroxyethyl)-1H-pyrazole-4-yl)-2-methoxy-N-(5-oxo-5,6,7,8-tetrahydro-1,6-naphthyridine-3-yl)benzenesulfonamide]	≥ 50	100 to 1000
COc1ccc(C2=CCN(C(C)=O)CC2)cc1S(=O)(=O)Nc1cnc2c(c1)C(=O)NCC2 [Example 61, 5-(1-acetyl-1,2,3,6-tetrahydropyridine-4-yl)-2-methoxy-N-(5-oxo-5,6,7,8-tetrahydro-1,6-naphthyridine-3-yl)benzenesulfonamide]	≥ 50	100 to 1000
O=C1NCc2ncc(NS(=O)(=O)c3cc(Br)cc4c3OCC4)cc21 [Example 5, 5-bromo-N-(5-oxo-6,7-dihydro-5H-pyrrolo[3,4-b]pyridine-3-yl)-2,3-dihydrobenzofuran-7-sulfonamide]	0 to 50	100 to 1000
COc1ccc(-c2cnn(C(C)c3nc(C(C)C)no3)c2)cc1S(=O)(=O)Nc1cnc2c(c1)C(=O)NCC2 (centres unmarked) [Example 69, 5-(1-(1-(3-isopropyl-1,2,4-oxadiazole-5-yl)ethyl)-1H-pyrazole-4-yl)-2-methoxy-N-(5-oxo-5,6,7,8-tetrahydro-1,6-naphthyridine-3-yl)benzenesulfonamide]	< 0	100 to 1000
O=C1NCc2ncc(NS(=O)(=O)c3cc(F)cc4c3OCC4)cc21 [Example 21, 5-fluoro-N-(5-oxo-6,7-dihydro-5H-pyrrolo[3,4-b]pyridine-3-yl)-2,3-dihydrobenzofuran-7-sulfonamide]	< 0	≥ 1000
COc1ccc(Br)cc1S(=O)(=O)Nc1cnc2c(c1)CNCC2 [Example 93, 5-bromo-2-methoxy-N-(5,6,7,8-tetrahydro-1,6-naphthyridine-3-yl)benzenesulfonamide hydrochloride]	≥ 50	10 to 100
CCOC(=O)Cn1cc(-c2ccc(OC)c(S(=O)(=O)Nc3cnc4c(c3)C(=O)NCC4)c2)cn1 [Example 68, ethyl 2-(4-(4-methoxy-3-(N-(5-oxo-5,6,7,8-tetrahydro-1,6-naphthyridine-3-yl)sulfamoyl)phenyl)-1H-pyrazole-1-yl)acetate]	≥ 50	10 to 100
CNC(=O)N1CCc2ncc(NS(=O)(=O)c3cc(Br)ccc3OC)cc2C1 [Example 111, 3-((5-bromo-2-methoxyphenyl)sulfonamido)-N-methyl-7,8-dihydro-1,6-naphthyridine-6(5H)-carboxamide]	≥ 50	10 to 100
COc1ccc(-c2cnn(C(C)(C)C(=O)O)c2)cc1S(=O)(=O)Nc1cnc2c(c1)C(=O)NCC2 [Example 60, 2-(4-(4-methoxy-3-(N-(5-oxo-5,6,7,8-tetrahydro-1,6-naphthyridine-3-yl)sulfamoyl)phenyl)-1H-pyrazole-1-yl)-2-methylpropanoic acid]	≥ 50	100 to 1000
COc1ccc(-c2cnc(N)nc2)cc1S(=O)(=O)Nc1cnc2c(c1)C(=O)NCC2 [Example 44, 5-(2-aminopyrimidine-5-yl)-2-methoxy-N-(5-oxo-5,6,7,8-tetrahydro-1,6-naphthyridine-3-yl)benzenesulfonamide]	≥ 50	100 to 1000
COc1ccc(-c2cnn(C3CCN(C(=O)OC(C)(C)C)CC3)c2)cc1S(=O)(=O)Nc1cnc2c(c1)C(=O)NCC2 [Example 85, tert-butyl 4-(4-(4-methoxy-3-(N-(5-oxo-5,6,7,8-tetrahydro-1,6-naphthyridine-3-yl)sulfamoyl)phenyl)-1H-pyrazole-1-yl)piperidine-1-carboxylate]	< 0	100 to 1000
COc1ccc(-c2cnn(C(F)(F)F)c2)cc1S(=O)(=O)Nc1cnc2c(c1)C(=O)NCC2 [Example 73, 2-methoxy-N-(5-oxo-5,6,7,8-tetrahydro-1,6-naphthyridine-3-yl)-5-(1-(trifluoromethyl)-1H-pyrazole-4-yl)benzenesulfonamide]	≥ 50	100 to 1000
CCOC(=O)N1CCc2ncc(NS(=O)(=O)c3cc(F)ccc3OC)cc2C1 [Example 95, ethyl3-((5-fluoro-2-methoxyphenyl)sulfonamido)-7,8-dihydro-1,6-naphthyridine-6(5H)-carboxylate]	≥ 50	100 to 1000
COc1ccc(-c2cnn(C3CCNCC3)c2)cc1S(=O)(=O)Nc1cnc2c(c1)C(=O)NCC2 [Example 86, 2-methoxy-N-(5-oxo-5,6,7,8-tetrahydro-1,6-naphthyridine-3-yl)-5-(1-(piperidine-4-yl)-1H-pyrazole-4-yl)benzenesulfonamide hydrochloride]	< 0	100 to 1000
O=C1NCCc2ncc(NS(=O)(=O)c3ccc4c(c3)OCCO4)cc21 [Example 24, N-(5-oxo-5,6,7,8-tetrahydro-1,6-naphthyridine-3-yl)-2,3-dihydrobenzo[b][1,4]dioxine-6-sulfonamide]	< 0	≥ 1000
CCOC(=O)CCc1ccc(-c2ccc(OC)c(S(=O)(=O)Nc3cnc4c(c3)C(=O)NCC4)c2)cc1 [Example 49, ethyl 3-(4'-methoxy-3'-(N-(5-oxo-5,6,7,8-tetrahydro-1,6-naphthyridine-3-yl)sulfamoyl)-[1,1'-biphenyl]-4-yl)propanoate]	≥ 50	10 to 100
CCNC(=O)CCc1ccc(-c2ccc(OC)c(S(=O)(=O)Nc3cnc4c(c3)C(=O)NCC4)c2)cc1 [Example 67, N-ethyl-3-(4'-methoxy-3'-(N-(5-oxo-5,6,7,8-tetrahydro-1,6-naphthyridine-3-yl)sulfamoyl)-[1,1'-biphenyl]-4-yl)propanamide]	0 to 50	100 to 1000
CCCCCNC(=O)N1CCc2ncc(NS(=O)(=O)c3cc(Cl)ccc3OC)cc2C1 [Example 106, 3-((5-chloro-2-methoxyphenyl)sulfonamido)-N-pentyl-7,8-dihydro-1,6-naphthyridine-6(5H)-carboxamide]	≥ 50	100 to 1000
O=C1NCCc2ncc(NS(=O)(=O)c3cc(F)cc4c3OCC4)cc21 [Example 23, 5-fluoro-N-(5-oxo-5,6,7,8-tetrahydro-1,6-naphthyridine-3-yl)-2,3-dihydrobenzofuran-7-sulfonamide]	< 0	≥ 1000
COc1ccc(-c2cnn3ccccc23)cc1S(=O)(=O)Nc1cnc2c(c1)C(=O)NCC2 [Example 45, 2-methoxy-N-(5-oxo-5,6,7,8-tetrahydro-1,6-naphthyridine-3-yl)-5-(pyrazolo[1,5-a]pyridine-3-yl)benzenesulfonamide]	≥ 50	100 to 1000
COc1ccc(OC)c(S(=O)(=O)Nc2cnc3c(c2)C(=O)NC3)c1 [Example 3, 2,5-dimethoxy-N-(5-oxo-6,7-dihydro-5H-pyrrolo[3,4-b]pyridine-3-yl)benzenesulfonamide]	≥ 50	10 to 100
COc1ccc(F)cc1S(=O)(=O)Nc1cnc2c(c1)CN(C(=O)NC(C)C)CC2 [Example 105, 3-((5-fluoro-2-methoxyphenyl)sulfonamido)-N-isopropyl-7,8-dihydro-1,6-naphthyridine-6(5H)-carboxamide]	≥ 50	10 to 100
COc1ccc(Cl)cc1S(=O)(=O)Nc1cnc2c(c1)CN(C(=O)NCC1CC1)CC2 [Example 116, 3-((5-chloro-2-methoxyphenyl)sulfonamido)-N-(cyclopropylmethyl)-7,8-dihydro-1,6-naphthyridine-6(5H)-carboxamide]	≥ 50	10 to 100
O=C1NCCc2ncc(NS(=O)(=O)c3cc(F)ccc3-c3ccc(C4(C(=O)O)CC4)cc3)cc21 [Example 36, 1-(4'-fluoro-2'-(N-(5-oxo-5,6,7,8-tetrahydro-1,6-naphthyridine-3-yl)sulfamoyl)-[1,1'-biphenyl]-4-yl)cyclopropane-1-carboxylic acid]	≥ 50	10 to 100
O=C1COc2ccc(S(=O)(=O)Nc3cnc4c(c3)C(=O)NCC4)cc2N1 [Example 25, 3-oxo-N-(5-oxo-5,6,7,8-tetrahydro-1,6-naphthyridine-3-yl)-3,4-dihydro-2H-benzo[b][1,4]oxazine-6-sulfonamide]	< 0	≥ 1000
